“Also recorded” adds a separate entry of the source.
Tests used:
TAT = experiment: anti-TAT assay: SeAP reporter gene expression under control of HIV-LTR in COS cells co-transfected with TAT; type: cell-based; conditions: 1, 10 and 100 μM added 24 h post transfection, assayed 48 h later, three independent assays, values only in FIG. I
Description: FIG. I: Illustrates anti-TAT activity of Compound II. COS cells are co-transfected with TAT and Secreted Alkaline Phosphatase (SeAP) genes. The SeAP gene, under the control of the HIV-LTR (responsive to TAT activation) or the RSV-LTR (unresponsive to TAT action) serves as a monitor or reporter gene. SeAP activity in the HIV-LTR combination but not the RSV-LTR combination serves as a measure of TAT activity. Cells containing the RSV-LTR co-transfected gene combination serve as an indicator of the non-specific toxicity of added test compounds. The black bars represent the percent inhibition of SeAP activity by Compound II when the SeAP gene is under the control of HIV-LTR. The hatched bars represent the effect of […] on SeAP activity when the SeAP gene is regulated by RSV-LTR. […] The figure includes results from three separate assays.
Compound II was tested for anti-TAT activity in an anti-TAT assay described in copending patent application Case Docket No. 8320 filed on the same day as the instant application and hereby incorporated by reference. […] The anti-TAT activity is measured by the percent inhibition of SeAP gene expression under the control of HIV-LTR.

COS cells = experiment: parallel cytotoxicity assay: SeAP gene expression under control of RSV-LTR (unresponsive to TAT) in COS cells; type: cell-based; conditions: values only in FIG. I
Description: At 24 hours post transfection 1, 10, and 100 μM of test compound was added to the culture media of COS cells transfected with two plasmids, one containing the reporter gene which codes for Secreted Alkaline Phosphatase (SeAP) under control of HIV-LTR, and other containing the TAT gene also under control of HIV-LTR. The alkaline phosphatase activity of the media was assayed 48 hours after addition of test compound. […] The anti-TAT activity is measured by the percent inhibition of SeAP gene expression under the control of HIV-LTR.

HIV-1 NIT strain [1] = experiment: inhibition of HIV-cytopathic effect in infected CD4+ CEM cells (live-cell count by trypan blue exclusion); type: cell-based; conditions: MOI=1, 4 days, values only in FIG. II
Description: (§1) FIGS. II Illustrates the anti-HIV activity of Compound II when tested according to the protocol set forth in Example 2. The open bars and the hatch bars are live-cell counts of infected and uninfected cells respectively. The filled circles are percentage of cell which were stained with antibody from AIDS patients. The duration of treatment for compound II was 4 days.
(§2) High titer virus stocks (HIV-1 NIT strain) were grown in CD4^+ CR1O cells in RMPI-1640 media (Gibco Laboratories) supplemented with 10% fetal calf serum and 0.1 mg/ml Gentamicin. The collected media were filtered through a 0.8 Micron filter and virus isolates were concentrated 100 fold and stored at -80° C.
(§3) CD4^+ CEM cells, propagated in the same medium, were incubated for 60 minutes at 37° C. with diluted stock virus at MOI=1. Cells were washed three times with phosphate buffered saline and resuspended in the medium at 2 x 10^5 cells/ml. Various quantities of Compound II were added. Four days after infection, numbers of live cells were counted by trypan blue exclusion [Mitsuya, et al. Proc. Natl. Acad. Sci. 83:1911 (1986)]. At the same time, aliquots of cells were fixed with acetone and stained with antibodies from AIDS patients, followed by a second staining with fluorescein-conjugated goat anti-human IgG (Cappel). […]

HIV-1 NIT strain [2] = experiment: inhibition of viral antigen production (percentage of cells stained with antibodies from AIDS patients); type: cell-based; conditions: CEM cells, MOI=1, 4 days; values only in FIG. II
Description: as §1, §2, §3

HIV = conditions: most patients; cited from earlier work

| Structure (SMILES) | anti-TAT activity (inhibition of SeAP gene expression under HIV-LTR) (TAT) | nonspecific toxicity (effect on SeAP activity under RSV-LTR) (COS cells) | inhibition of HIV-cytopathic effect (HIV-1 NIT strain [1]) | inhibition of viral antigen production (HIV-1 NIT strain [2]) | virustatic range (dose) (HIV) |
| --- | --- | --- | --- | --- | --- |
| NCC(=O)Nc1ccc(Cl)cc1C(=O)c1ccc[nH]1 [Compound II, 2-glycinamido-5-chlorophenyl (2-pyrryl) ketone] | exhibits anti-TAT activity; also recorded: specific inhibitor of TAT | does not exhibit nonspecific autotoxicity | inhibition of HIV-cytopathic effect | inhibition of HIV-cytopathic effect and viral antigen production | – |
| Nc1ccn([C@H]2CC[C@@H](CO)O2)c(=O)n1 [ddC] | – | – | – | – | 0.005-0.25 mg/kg body weight |
